Paper PMC5874533 (Scientia Pharmaceutica, 2018)
Read-outs that look alike come from different tables or passages of the source.

Experiments:
[1] = Caco-2 monolayer transport (permeability) study; assay type: in vitro ADME, human; settings: human
Method: (§1) Cell culture. For the maintenance culture, Caco-2 cells were incubated at 37 °C, 5% CO2, and 90% relative humidity in 75 cm^2 culture flasks with supplemented Dulbecco's Modified Eagle's Medium (DMEM). The cells were passaged once a week using trypsin/ethylenediaminetetraacetic acid (EDTA) solution. Approximately 10^6 cells were seeded per flask. The culture medium was changed three times a week. For the transport studies, the Caco-2 cells were inoculated at a density of 60,000 cells/cm^2 on Transwell filter inserts and placed into 12-well flat-bottom cluster plates. The inserts (apical compartments) were supplied with 0.5 mL and the outer wells (basal compartments) with 1.5 mL of DMEM culture medium. The cells for the present transport study were cultured at 37 °C, 5% CO2 and 90% relative humidity in DMEM culture medium for 18 days until they formed confluent monolayers (31 passages). The culture medium was replaced every 2-3 days. […] Transport studies. […] All tests were carried out in triplicate. […] Testing of integrity of monolayers. Each batch of monolayer Caco-2 cells was inoculated and cultured under the same conditions on Transwell filter inserts in parallel. Qualification of intactness of the Caco-2 monolayer batches prior to the transport studies was carried out in triplicate for each transport condition using the selected transport markers fluorescein, [^3H]-propranolol and rhodamine 123. […] Mobile phase A consisted of 0.1% formic acid in water and mobile phase B of 0.1% formic acid in acetonitrile. […] The samples were kept at 10 °C and injected at a volume of 20 μL. The triple quad mass spectrometer system (Waters) was used in the positive (ESI^+) electrospray mode at 2.63 kV. […] Fluorescein and rhodamine 123 samples (100 μL) were determined by fluorescence reading. The samples were collected in 96 well microtiter plates. The fluorescence intensity was recorded by exciting the sample with light at 485 nm and measuring the emitted fluorescence at 535 nm. The fluorescence emission of a blank sample (Krebs-Ringer bicarbonate buffer (KRB) solution) was used as baseline.

Caco-2 cell monolayers = test: Caco-2 monolayer transport (permeability) study; assay type: in vitro ADME, human; settings: Caco-2, 10–100 μM
Method: as §1

Caco-2 cells = test: Tolerability of enisamium iodide to Caco-2 cells (TEER); assay type: cell-based, human
Method: For this purpose, the cells were incubated with the highest dose supposed for the permeability studies (100 μM). After an incubation period of 120 min at 37 °C the TEER was checked to assess the integrity of the cell monolayers. […] All experiments were performed in triplicate. As a positive control, sodium dodecyl sulfate was used in this experiment.
The TEER was calculated according to TEER= Rc(A)=(Rc+f−Rf)A (Ω·cm^2). where Rc(A) is the electrical resistance of the monolayer with the area A (Ω cm^2); Rc+f is the electrical resistance of the monolayer including the filter (Ω); Rf is the electrical resistance of the filter without cells (Ω); and A is the area of the monolayer (cm^2).

P-glycoprotein (P-gp) = P-glycoprotein (P-gp) (Homo sapiens, UniProt P08183)
Method: Transport studies. Caco-2 monolayers were rinsed twice with KRB to remove the cell culture medium. Fresh KRB (pH 7.4) was filled into the acceptor compartment and the transport solution (test substance in KRB at pH 7.4) into the donor compartment. The cells were equilibrated for 30 min in a CO2 incubator at 37 °C and stayed there between the sample collection points. After pre-incubation, samples were taken from the donor and acceptor compartment, respectively. The concentration of test compound in the donor compartment was defined as initial donor concentration. At 0 min, 30 min, 60 min, 90 min and 120 min 100 µL samples were drawn from the acceptor compartment. The amount of solution removed was replaced by fresh, pre-warmed KRB. At the final pull point, samples were retrieved from the donor compartment, too. All tests were carried out in triplicate. For studies including the P-glycoprotein (P-gp) inhibitor cyclosporin A and the marker compound for P-gp transport inhibitors, [^3H]-digoxin the substances were applied to both the donor and acceptor compartment in the same concentration. […]
[^3H]-propranolol and [^3H]-digoxin were quantified by liquid scintillation counting. […] After an equilibration period of at least 1 h radiation was measured for 2 min per well in a scintillation counter. The recorded counts in a blank sample were subtracted from the value of each test sample.
Data of the permeability study were calculated using MS Excel (Microsoft, Redmond, WA, USA). Apparent permeability coefficient (Papp) was calculated according to the following equation: Papp=ΔQ 1 1/Δt m0 A VD(cm·s^−1) where ΔQ/Δt is the permeability rate (steady state transport rate) obtained from the profile of the transported mass or radioactivity of substrate versus time (µg or dpm·s^−1). Calculated by the linear regression of time and concentration. A is the area of the exposed cell monolayer (cm^2), m0 is the initial mass or radioactivity of test compound in the donor compartment (µg or dpm), and VD is the buffer volume of donor compartment. […]

[2] = Solubility study in buffer solutions pH 1.2-7.5 (shake flask, HPLC); assay type: physicochemical; settings: for solubility at 48 h: hydrochloric acid/sodium chloride buffer pH 1.2, 37 °C, pH 1.2, 37 °C
Method: Solubility was investigated in four different buffer systems at two temperatures each.
Preparation of buffer solutions:
pH 1.2: 425.0 mL of 0.2 M hydrochloric acid solution, and 250.0 mL 0.2 M sodium chloride solution diluted to 1000 mL with water;
pH 6.8: 250.0 mL of 0.2 M monobasic potassium phosphate solution, 112.0 mL of 0.1 M sodium hydroxide solution diluted to 1000 mL with water;
pH 7.5: 250.0 mL of 0.2 M monobasic potassium phosphate solution, 112.0 mL of 0.1 M sodium hydroxide solution diluted to 1000 mL with water and adjusted to pH 7.5 with 0.1 M sodium hydroxide solution and.
Flow rate of the mobile phase: 0.5 mL min^−1 and a column temperature of 30 °C. The samples were injected at a volume of 10 µL with detection at wavelength 225 nm.
Preparation of the final test solution: Following stirring, the flask was allowed to deposit the excess amount of substance for 5 min. Thereafter, 1.0 mL of the supernatant was transferred into a 50 mL volumetric flask, dissolved in mobile phase, and adjusted to 50.0 mL with the same solvent. For the study at 25 °C, 5.0 mL of this solution was diluted to 20.0 mL with mobile phase. For the study at 37 °C, 5.0 mL of the solution was diluted to 50.0 mL with mobile phase.
10.0 mL of this solution was dissolved to 100.0 mL with mobile phase.

[3] = Caco-2, pH 7.4, Caco-2, monolayer qualification marker, read-out: Papp (AB)

Chain of P-glycoprotein (P-gp) (P08183 whole entry): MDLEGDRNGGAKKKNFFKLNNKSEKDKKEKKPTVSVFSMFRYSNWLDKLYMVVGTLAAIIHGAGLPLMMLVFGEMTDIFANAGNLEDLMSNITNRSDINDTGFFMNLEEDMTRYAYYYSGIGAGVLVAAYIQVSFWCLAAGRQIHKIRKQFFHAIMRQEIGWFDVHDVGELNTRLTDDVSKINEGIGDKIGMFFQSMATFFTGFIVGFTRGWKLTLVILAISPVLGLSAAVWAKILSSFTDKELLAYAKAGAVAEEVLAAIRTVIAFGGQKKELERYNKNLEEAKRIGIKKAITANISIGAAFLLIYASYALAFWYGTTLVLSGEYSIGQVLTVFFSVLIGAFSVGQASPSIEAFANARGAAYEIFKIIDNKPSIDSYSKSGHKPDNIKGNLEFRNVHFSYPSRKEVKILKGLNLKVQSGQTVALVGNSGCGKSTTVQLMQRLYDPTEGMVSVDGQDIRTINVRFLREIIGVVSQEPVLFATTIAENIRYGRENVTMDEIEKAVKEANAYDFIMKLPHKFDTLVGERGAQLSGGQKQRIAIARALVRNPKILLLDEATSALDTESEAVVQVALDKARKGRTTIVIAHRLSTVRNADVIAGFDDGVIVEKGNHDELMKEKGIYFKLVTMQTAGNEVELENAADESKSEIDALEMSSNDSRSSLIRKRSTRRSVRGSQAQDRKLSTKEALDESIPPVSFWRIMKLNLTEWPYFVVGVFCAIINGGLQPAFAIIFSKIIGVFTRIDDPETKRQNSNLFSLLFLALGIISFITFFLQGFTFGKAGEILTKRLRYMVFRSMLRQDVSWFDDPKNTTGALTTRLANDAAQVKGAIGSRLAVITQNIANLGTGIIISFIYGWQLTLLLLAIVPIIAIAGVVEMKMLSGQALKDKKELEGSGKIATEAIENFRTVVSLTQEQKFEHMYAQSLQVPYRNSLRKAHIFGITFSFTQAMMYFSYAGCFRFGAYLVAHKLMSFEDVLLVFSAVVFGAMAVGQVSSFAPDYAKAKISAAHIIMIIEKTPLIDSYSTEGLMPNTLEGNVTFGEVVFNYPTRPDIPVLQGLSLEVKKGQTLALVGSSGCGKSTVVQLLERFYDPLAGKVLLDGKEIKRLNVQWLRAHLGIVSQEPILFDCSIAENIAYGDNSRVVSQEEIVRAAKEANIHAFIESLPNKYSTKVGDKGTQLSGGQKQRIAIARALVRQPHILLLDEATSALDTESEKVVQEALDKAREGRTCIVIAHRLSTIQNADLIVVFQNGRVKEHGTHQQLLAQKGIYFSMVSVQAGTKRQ

In the case of CC(C)NCC(O)COc1cccc2ccccc12 (stereo not shown) [propranolol, reference compound], the Papp A→B at 120 min [1, 3] is reported as 19.6 ×10⁻⁶ cm/s.
With C[n+]1ccc(C(=O)NCc2ccccc2)cc1.[I-] [enisamium iodide, 4-(benzylcarbamoyl)-1-methylpyridinium iodide] the “Evidence for active transport” value (Caco-2 cell monolayers) was “no evidence for active transport”, the Permeability classification (Caco-2 cell monolayers) was “low in vitro permeability” and the Papp A→B at 120 min ([1]; Caco-2, pH 7.4, Caco-2, donor concentrations 10–100 μM, KRB pH 7.4, read-out: Permeability coefficient (Papp), apical to basolateral) was 0.2 to 0.3 ×10⁻⁶ cm/s. For the same compound, the “TEER relative to TEER measured in medium without test substance” value (Caco-2 cells; up to 100 μM, after 2 h of incubation) was “about 100%”, the “P-gp-mediated transport of the substance” value (P-glycoprotein (P-gp); bi-directional transport 10 μM with/without cyclosporin A 12 μmol·L^−1) was “not indicative for a P-gp-mediated transport” and the “Fold lower permeation coefficient in ab direction with cyclosporin A compared to without CsA” value (P-glycoprotein (P-gp); human, Caco-2, 120 min, 10 μM, pH 7.4) was “more than 3 times”. For the same compound, the “Solubility classification according to the BCS” value [2] was “highly soluble”, the “Amount that can be dissolved in 250 mL of buffer solution” value ([2]; 37 °C) was “at least 31.8 g” and the solubility at 96 h ([2]; four buffer solutions (pH 1.2, 4.5, 6.8, 7.5), 25 °C, pH 1.2, aqueous buffer, thermodynamic from solid, four buffer solutions from pH 1.2 to 7.5, 25 °C) was roughly 60 mg/mL. It also gave a solubility ([2]; four buffer solutions (pH 1.2, 4.5, 6.8, 7.5), 37 °C, pH 1.2, aqueous buffer, thermodynamic from solid, four buffer solutions from pH 1.2 to 7.5, 37 °C, depending on the pH) of 130 to 150 mg/mL, a solubility at 96 h ([2]; hydrochloric acid/sodium chloride buffer pH 1.2, 25 °C, pH 1.2, simulated gastric fluid, thermodynamic from solid, pH 1.2, 25 °C, batch 170215) of 63.2 mg/mL and a solubility at 96 h ([2]; hydrochloric acid/sodium chloride buffer pH 1.2, 25 °C, pH 1.2, simulated gastric fluid, thermodynamic from solid, pH 1.2, 25 °C, batch 180215) of 63.5 mg/mL. For the same compound, the solubility at 96 h ([2]; hydrochloric acid/sodium chloride buffer pH 1.2, 25 °C, pH 1.2, simulated gastric fluid, thermodynamic from solid, pH 1.2, 25 °C, batch 190315) was 63.2 mg/mL, the solubility at 96 h ([2]; hydrochloric acid/sodium chloride buffer pH 1.2, 25 °C, pH 1.2, simulated gastric fluid, thermodynamic from solid, pH 1.2, 25 °C, mean of three batches) was 63.3 mg/mL and the solubility at 48 h ([2]; pH 1.2, simulated gastric fluid, thermodynamic from solid, batch 170215) was 152 mg/mL. The solubility at 48 h ([2]; pH 1.2, simulated gastric fluid, thermodynamic from solid, batch 180215) was 155 mg/mL, the solubility at 48 h ([2]; pH 1.2, simulated gastric fluid, thermodynamic from solid, batch 190315) was 155 mg/mL and the solubility at 48 h ([2]; pH 1.2, simulated gastric fluid, thermodynamic from solid, mean of three batches) was 154 mg/mL. For the same compound, the solubility at 96 h ([2]; potassium phosphate buffer pH 6.8, 25 °C, pH 6.8, aqueous buffer, thermodynamic from solid, pH 6.8, 25 °C, batch 170215) was 60.8 mg/mL, the solubility at 96 h ([2]; potassium phosphate buffer pH 6.8, 25 °C, pH 6.8, aqueous buffer, thermodynamic from solid, pH 6.8, 25 °C, batch 180215) was 59.5 mg/mL and the solubility at 96 h ([2]; potassium phosphate buffer pH 6.8, 25 °C, pH 6.8, aqueous buffer, thermodynamic from solid, pH 6.8, 25 °C, batch 190315) was 60.2 mg/mL. The solubility at 96 h ([2]; potassium phosphate buffer pH 6.8, 25 °C, pH 6.8, aqueous buffer, thermodynamic from solid, pH 6.8, 25 °C, mean of three batches) was 60.2 mg/mL, the solubility at 96 h ([2]; potassium phosphate buffer pH 6.8, 37 °C, pH 6.8, aqueous buffer, thermodynamic from solid, pH 6.8, 37 °C, batch 170215) was 131 mg/mL and the solubility at 96 h ([2]; potassium phosphate buffer pH 6.8, 37 °C, pH 6.8, aqueous buffer, thermodynamic from solid, pH 6.8, 37 °C, batch 180215) was 128 mg/mL. The solubility at 96 h ([2]; potassium phosphate buffer pH 6.8, 37 °C, pH 6.8, aqueous buffer, thermodynamic from solid, pH 6.8, 37 °C, batch 190315) was 131 mg/mL, the solubility at 96 h ([2]; potassium phosphate buffer pH 6.8, 37 °C, pH 6.8, aqueous buffer, thermodynamic from solid, pH 6.8, 37 °C, mean of three batches) was 130 mg/mL and the solubility at 96 h ([2]; potassium phosphate buffer pH 7.5, 25 °C, pH 7.5, aqueous buffer, thermodynamic from solid, pH 7.5, 25 °C, batch 170215) was 58.9 mg/mL. The solubility at 96 h ([2]; potassium phosphate buffer pH 7.5, 25 °C, pH 7.5, aqueous buffer, thermodynamic from solid, pH 7.5, 25 °C, batch 180215) was 59.2 mg/mL, the solubility at 96 h ([2]; potassium phosphate buffer pH 7.5, 25 °C, pH 7.5, aqueous buffer, thermodynamic from solid, pH 7.5, 25 °C, batch 190315) was 59.1 mg/mL and the solubility at 96 h ([2]; potassium phosphate buffer pH 7.5, 25 °C, pH 7.5, aqueous buffer, thermodynamic from solid, pH 7.5, 25 °C, mean of three batches) was 59.1 mg/mL. For the same compound, the solubility at 96 h ([2]; potassium phosphate buffer pH 7.5, 37 °C, pH 7.5, aqueous buffer, thermodynamic from solid, pH 7.5, 37 °C, batch 170215) was 127 mg/mL, the solubility at 96 h ([2]; potassium phosphate buffer pH 7.5, 37 °C, pH 7.5, aqueous buffer, thermodynamic from solid, pH 7.5, 37 °C, batch 180215) was 130 mg/mL and the solubility at 96 h ([2]; potassium phosphate buffer pH 7.5, 37 °C, pH 7.5, aqueous buffer, thermodynamic from solid, pH 7.5, 37 °C, batch 190315) was 126 mg/mL. It also gave a solubility at 96 h ([2]; potassium phosphate buffer pH 7.5, 37 °C, pH 7.5, aqueous buffer, thermodynamic from solid, pH 7.5, 37 °C, mean of three batches) of 128 mg/mL, a solubility at 96 h ([2]; sodium acetate/acetic acid buffer pH 4.5, 25 °C, pH 4.5, aqueous buffer, thermodynamic from solid, pH 4.5, 25 °C, batch 170215) of 59.7 mg/mL and a solubility at 96 h ([2]; sodium acetate/acetic acid buffer pH 4.5, 25 °C, pH 4.5, aqueous buffer, thermodynamic from solid, pH 4.5, 25 °C, batch 180215) of 59.3 mg/mL. It also gave a solubility at 96 h ([2]; sodium acetate/acetic acid buffer pH 4.5, 25 °C, pH 4.5, aqueous buffer, thermodynamic from solid, pH 4.5, 25 °C, batch 190315) of 60.9 mg/mL, a solubility at 96 h ([2]; sodium acetate/acetic acid buffer pH 4.5, 25 °C, pH 4.5, aqueous buffer, thermodynamic from solid, pH 4.5, 25 °C, mean of three batches) of 60 mg/mL and a solubility at 96 h ([2]; sodium acetate/acetic acid buffer pH 4.5, 37 °C, pH 4.5, aqueous buffer, thermodynamic from solid, pH 4.5, 37 °C, batch 170215) of 132 mg/mL. It also gave a solubility at 96 h ([2]; sodium acetate/acetic acid buffer pH 4.5, 37 °C, pH 4.5, aqueous buffer, thermodynamic from solid, pH 4.5, 37 °C, batch 180215) of 133 mg/mL, a solubility at 96 h ([2]; sodium acetate/acetic acid buffer pH 4.5, 37 °C, pH 4.5, aqueous buffer, thermodynamic from solid, pH 4.5, 37 °C, batch 190315) of 136 mg/mL and a solubility at 96 h ([2]; sodium acetate/acetic acid buffer pH 4.5, 37 °C, pH 4.5, aqueous buffer, thermodynamic from solid, pH 4.5, 37 °C, mean of three batches) of 134 mg/mL.
In the case of CCCCCCCCCCCCOS(=O)(=O)[O-].[Na+] [sodium dodecyl sulfate], the TEER after recovery (Caco-2 cells; positive control, growth medium within 24 h) is reported as 118 Ω·cm^2 and the TEER after exposure (Caco-2 cells; positive control, immediate and remaining reduction) is reported as < 108 Ω·cm^2.
Compound COC(=O)c1ccccc1-c1c2ccc(=N)cc-2oc2cc(N)ccc12 [rhodamine 123, reference compound] has an efflux ratio at 120 min ([1]; pH 7.4, Caco-2, efflux ratio, monolayer qualification marker, read-out: Papp (BA)/Papp (AB)) of 17.1 and a Papp B→A at 120 min ([1]; pH 7.4, Caco-2, monolayer qualification marker) of 4.5 ×10⁻⁶ cm/s.
In the case of C[C@H]1O[C@@H](O[C@H]2[C@@H](O)C[C@H](O[C@H]3[C@@H](O)C[C@H](O[C@H]4CC[C@@]5(C)[C@H](CC[C@@H]6[C@@H]5C[C@@H](O)[C@]5(C)[C@@H](C7=CC(=O)OC7)CC[C@]65O)C4)O[C@@H]3C)O[C@@H]2C)C[C@H](O)[C@@H]1O [[^3H]-digoxin, reference compound], the “Bi-directional transport in presence of enisamium iodide” value (P-glycoprotein (P-gp); [^3H]-digoxin 1 μmol·L^−1, enisamium iodide 10 μmol·L^−1, Caco-2) is reported as “transported much more in the ba direction as compared to the ab”.
Compound O=C1OC2(c3ccc(O)cc3Oc3cc(O)ccc32)c2ccccc21 [fluorescein, reference compound] has a Papp A→B at 120 min [1, 3] of 0.18 ×10⁻⁶ cm/s.
